Tests used:
[1] = cited from earlier work
[2] = Crystal formation in concentrated tapentadol solution on storage; format: physicochemical; details: increased concentration of tapentadol in solution, stored for more than 3 days
Text: This makes the formulation non-homogeneous and therefore non-suitable for nasal administration. This crystal growth may further leads to altered therapeutic effect of the drug. Present invention overcomes this problem by providing a composition, wherein no such crystal growth is observed in the composition comprising high concentration of drug, when stored for longer duration.

For `CC[C@@H](c1cccc(O)c1)[C@@H](C)CN(C)C.Cl` [Tapentadol, 3-[(1R,2R)-3-(dimethylamino)-1-ethyl-2-methylpropyl]phenol], the clearance ([1]; Eur. J. Drug Met and Pharmacokinetics 2007, 32, 163-169) is given as 1468.+−.122 mL/min, the “time of maximum serum concentration” value ([1]; after oral dosing) is given as “around 1.25 hours” and the parent compound metabolized ([1]; given orally) is given as “About 97%”. The “time to absorb after administration” value ([1]; oral formulations) was “at least 45 minutes” and the “crystal formation on storage” value [2] was “formation of crystals”.
